Test results as given in patent publication US8809341B2, “2,4-pyrimidinediamine compounds and uses as anti-proliferative agents” (Rigel Pharmaceuticals, Inc., priority 2003, dated 2014).
Like-named read-outs stand apart in the source and are kept apart here.

Legend:
A549 cells = assay: in vitro antiproliferation assay, A549 (lung); type: cell-based
Outline: (§1)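 Standard in vitro antiproliferation assays on tumour cell lines, including A549 and H1299 (both lung); IC50 values determined.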

H1299 cells = assay: in vitro antiproliferation assay, H1299 (lung); type: cell-based
Outline: as §1

ACHN = assay: in vitro antiproliferation assay, ACHN (kidney/p53 wt); type: cell-based
Method: (§2) The IC50 values of various compounds against a various different tumor cell lines were determined using standard in vitro antiproliferation assays. The tumor cell lines tested were as follows: A549 (lung); H1299 (lung), ACHN (kidney/p53 wt), CAKI (renal cell carcinoma), NCI-H460 (lung); HCT116 (colon/p53w0; HELA (cervix/p53 wt), HUH7 (liver/p53 wt), HUVEC (primary endothelial), LNCAP (prostate), HT-29 (colon); MCF-7 (breast); MCF-7 (breast/ER positive), MDA MB435S (breast); MDA MB231 (breast/ER negative), DU145 (prostate); BxPC-3 (pancreatic); SKOV-3 (ovarian); HepG2 (hepatic), NDHF primary normal human dermal fibroblast), SKMEL28 (breast/p53mut), SKMEL5 (breast/p53 wt), U20S (bone) and PC3 (prostate). […] A blank indicates the specified compound was not tested against the specified cell line.
(§3) Many of the compounds were tested against other cell lines. Their activity is reported in TABLE 15, below, where +”, “−”, “−/+” or “+/−” values are as described for TABLES 1-14. Where the cell line includes a value in a parenthetical, the value indicates the seeding density at which the assay was performed

CAKI = assay: in vitro antiproliferation assay, CAKI (renal cell carcinoma); type: cell-based
Method: as §2, §3

HCT116 = assay: in vitro antiproliferation assay, HCT116 (colon); type: cell-based
Outline: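 Standard in vitro antiproliferation assays gave IC50 values; where a cell line carries a parenthetical value, that value is the seeding density used.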

HELA = assay: in vitro antiproliferation assay, HELA (cervix/p53 wt); type: cell-based
Method: as §2, §3

HUH7 = assay: in vitro antiproliferation assay, HUH7 (liver/p53 wt); type: cell-based
Method: as §2, §3

HUVEC = assay: in vitro antiproliferation assay, HUVEC (primary endothelial); type: cell-based
Method: as §2, §3

LNCAP = assay: in vitro antiproliferation assay, LNCAP (prostate); type: cell-based
Method: as §2, §3

MCF-7 = assay: in vitro antiproliferation assay, MCF-7 (breast/ER positive); type: cell-based
Method: as §2, §3

MDA MB231 = assay: in vitro antiproliferation assay, MDA MB231 (breast/ER negative); type: cell-based
Method: as §2, §3

NDHF = assay: in vitro antiproliferation assay, NDHF (primary normal human dermal fibroblast); type: cell-based
Method: as §2, §3

SKMEL28 = assay: in vitro antiproliferation assay, SKMEL28 (breast/p53mut); type: cell-based
Method: as §2, §3

SKMEL5 = assay: in vitro antiproliferation assay, SKMEL5; type: cell-based
Method: as §2, §3

U20S = assay: in vitro antiproliferation assay, U20S (bone); type: cell-based
Method: as §2, §3

PC3 = assay: in vitro antiproliferation assay, PC3 (prostate); type: cell-based
Method: as §2, §3

[1] = tested on: tumors generated from A549 cells; assay: in vivo xenograft experiment, tumors generated from A549 cells; conditions: mice
Method: Compounds 107, 858, 164, 211 and 156 were tested for their ability to shrink tumors generated from A549 cells in standard xenograft experiments. Compounds 141 and 211 were tested against H1299 tumors.

[2] = HCT116 (colon), read-out: HCT116
[3] = Table 5, in vitro antiproliferation, A549 (lung) cells
[4] = Table 5, in vitro antiproliferation, H1299 (lung) cells
[5] = Table 7, in vitro antiproliferation, A549 (lung) cells
[6] = Table 7, in vitro antiproliferation, colon cells, read-out: HTC116

IC50 (ACHN)	IC50 (CAKI)	IC50 (HCT116; [2])	IC50 (HELA)	IC50 (HUH7)	IC50 (LNCAP)	IC50 (SKMEL28)	IC50 (SKMEL5)	SMILES	IC50 (HUVEC)	IC50 (NDHF)	IC50 (U20S)	also measured
≤ 20 µM	≤ 20 µM	> 20 µM	≤ 20 µM	≤ 20 µM	≤ 20 µM	≤ 20 µM	≤ 20 µM	COC(=O)N1CCN(c2ccc(Nc3ncc(F)c(NC4CCC4)n3)cc2)CC1 [compound 107]	≤ 20 µM	≤ 20 µM	≤ 20 µM	IC50 (A549 cells; IC50 class against A549 (lung) tumor cells): ≤ 20 µM; IC50 (H1299 cells; IC50 class against H1299 (lung) tumor cells): ≤ 20 µM; IC50 (MCF-7; MCF7, seeding density 2K, read-out: MCF7(2K)): ≤ 20 µM; IC50 (MCF-7; MCF7, seeding density 4K, read-out: MCF7(4K)): ≤ 20 µM; IC50 (MDA MB231; MDA-MB-231, seeding density 2K, read-out: MDA-MB-231(2K)): ≤ 20 µM; IC50 (MDA MB231; MDA-MB-231, seeding density 4K, read-out: MDA-MB-231(4K)): ≤ 20 µM
≤ 20 µM	–	> 20 µM	≤ 20 µM	≤ 20 µM	≤ 20 µM	≤ 20 µM	≤ 20 µM	COc1cc(Nc2ncc(F)c(Nc3ccc4c(c3)OCCO4)n2)cc(OC)c1 [compound 512]	≤ 20 µM	≤ 20 µM	≤ 20 µM	IC50 (A549 cells; [3]): ≤ 20 µM; IC50 (H1299 cells; [4]): ≤ 20 µM; IC50 (PC3): > 20 µM
≤ 20 µM	≤ 20 µM	≤ 20 µM	≤ 20 µM	≤ 20 µM	≤ 20 µM	≤ 20 µM	≤ 20 µM	Cc1cc(Nc2ncc(F)c(Nc3cc(C)c(O)c(Cl)c3)n2)cc(Cl)c1O [compound 942]	≤ 20 µM	≤ 20 µM	≤ 20 µM	IC50 (A549 cells; A549 (lung) cells, antiproliferation): ≤ 20 µM; IC50 (H1299 cells; H1299 (lung) cells, antiproliferation): ≤ 20 µM
≤ 20 µM	–	> 20 µM	≤ 20 µM	≤ 20 µM	≤ 20 µM	≤ 20 µM	≤ 20 µM	Cc1cc(Nc2ncc(F)c(Nc3ccc4c(c3)OCCO4)n2)cc(C(F)(F)F)c1 [compound 523]	≤ 20 µM	≤ 20 µM	≤ 20 µM	IC50 (A549 cells; [3]): > 20 µM; IC50 (H1299 cells; [4]): ≤ 20 µM
–	–	> 20 µM	≤ 20 µM	≤ 20 µM	≤ 20 µM	–	–	CNC(=O)c1cc2cccc(Nc3ncc(F)c(Nc4ccc5c(c4)OCCO5)n3)c2[nH]1 [compound 649]	≤ 20 µM	≤ 20 µM	≤ 20 µM	IC50 (A549 cells; [5]): ≤ 20 µM; IC50 (HCT116; [6]): ≤ 20 µM
–	–	–	–	–	–	–	–	CN1CCN(c2ccc(Nc3ncc(F)c(NC4CCCCC4)n3)cc2)CC1.Cl [compound 156]	–	–	–	Preliminary Results: reduction in tumor size ([1]; 50 mg/kg Bid, daily, 0.9% Saline): 60.4%
≤ 20 µM	≤ 20 µM	> 20 µM	≤ 20 µM	≤ 20 µM	≤ 20 µM	≤ 20 µM	≤ 20 µM	CCOC(=O)c1cc2cccc(Nc3ncc(F)c(Nc4cc(C)cc(C)c4)n3)c2[nH]1 [compound 646]	≤ 20 µM	≤ 20 µM	≤ 20 µM	IC50 (A549 cells; [5]): ≤ 20 µM; IC50 (H1299 cells; Table 7, in vitro antiproliferation, H1299 (lung) cells): ≤ 20 µM; IC50 (HCT116; [6]): ≤ 20 µM
–	–	–	–	–	–	–	–	Fc1cnc(Nc2cccc(-c3ncco3)c2)nc1Nc1cc(C2CC2)[nH]n1 [compound 211]	–	–	–	IC50 (A549 cells; Homo sapiens, IC50 class against A549 (lung) tumor cells): ≤ 20 µM; IC50 (H1299 cells; Homo sapiens, NCI-H1299, IC50 class against H1299 (lung) tumor cells): ≤ 20 µM; IC50 (HCT116; Homo sapiens, HCT-116, HCT116 (colon), read-out: HCT116): ≤ 20 µM; IC50 (HELA; Homo sapiens): ≤ 20 µM; IC50 (MCF-7; Homo sapiens, MCF7, seeding density 2K, read-out: MCF7(2K)): ≤ 20 µM; IC50 (MCF-7; Homo sapiens, MCF7, seeding density 4K, read-out: MCF7(4K)): ≤ 20 µM; IC50 (MDA MB231; Homo sapiens, MDA-MB-231, seeding density 2K, read-out: MDA-MB-231(2K)): ≤ 20 µM; IC50 (MDA MB231; Homo sapiens, MDA-MB-231, seeding density 4K, read-out: MDA-MB-231(4K)): ≤ 20 µM; Preliminary Results: reduction in tumor size ([1]; 25 mg/kg bid, 100% DMSO): 23.2%
